Measurements as given in US20020182619A1, “Compositions, kits, and methods for identification, assessment, prevention, and therapy of ovarian cancer” (Millennium Pharmaceuticals, Inc., priority 2000, published 2002).

Test system: ovarian cell line (OVCAR3)
Test: Transcript profiling on nylon arrays of OVCAR3 untreated or treated with LPA, LYS294002, or both
Type: cell-based
Protocol: Nylon arrays were prepared by spotting purified PCR product onto a nylon membrane using a robotic gridding system linked to a sample database. Several thousand clones were spotted on each nylon filter.
RNA or DNA from cell lines were used for hybridization against the nylon arrays. The RNA or DNA is labeled utilizing an in vitro reverse transcription reaction that contains a radiolabeled nucleotide that is incorporated during the reaction. Hybridization experiments were carried out by combining labeled RNA or DNA samples with nylon filters in a hybridization chamber. Duplicate, independent hybridization experiments were performed to generate transcriptional profiling data. See, Nature Genetics, 21 (1999).
The level of expression of ˜25,000 potential markers were measured in 4 samples, an untreated ovarian cell line (OVCAR3), OVCAR3 treated with LPA, OVCAR3 treated with LYS294002, and OVCAR3 treated with LPA and LYS294002. LYS294002 is a specific inhibitor of the P13Kinase pathway.
Table 1 represents the markers that are expressed at least 2.5 fold greater in the OVCAR3 cell line treated with LPA as compared to the untreated cell line (column G). Table 1 also lists the expression value of these potential marker in the 4 samples, untreated OVCAR3, OVCAR3 treated with LPA, OVCAR3 treated with LYS294002, and OVCAR3 treated with LYS294002 and LPA (columns C-F). […]

lysophosphatidic acid [LPA]
UPinLPA vs OVCAR3: marker expression in the OVCAR3 cell line treated with LPA as compared to the untreated cell line (markers of Table 1, quotient of Ave-LPA divided by Ave-OVCAR3): at least 2.5 fold
UPinOVCAR3 vs LPA: marker expression in the untreated OVCAR3 cell line as compared to the cell line treated with LPA (markers of Table 2, quotient of Ave-OVCAR3 divided by Ave-LPA): at least 4 fold
